According to US10487087B2, “Positive allosteric modulators of the GLP-1 receptor” (Vanderbilt University, priority 2015, dated 2019):

Columns and labels:
human GLP-1R [1] = target: T1, human GLP-1R (Homo sapiens (Human), UniProt P43220); experiment: GLP-1 assay with GLP1 endogenous agonist (calcium mobilization, EC20 GLP-1 peptide 7-36 amide); assay type: cell-based; conditions: calcium flux; for Emax at 30 µM: 30 μM compound, EC20 of GLP-1 7-36 amide; for EC50: potentiation of EC20 GLP-1 7-36 amide
T1 sequence (P43220 24-463): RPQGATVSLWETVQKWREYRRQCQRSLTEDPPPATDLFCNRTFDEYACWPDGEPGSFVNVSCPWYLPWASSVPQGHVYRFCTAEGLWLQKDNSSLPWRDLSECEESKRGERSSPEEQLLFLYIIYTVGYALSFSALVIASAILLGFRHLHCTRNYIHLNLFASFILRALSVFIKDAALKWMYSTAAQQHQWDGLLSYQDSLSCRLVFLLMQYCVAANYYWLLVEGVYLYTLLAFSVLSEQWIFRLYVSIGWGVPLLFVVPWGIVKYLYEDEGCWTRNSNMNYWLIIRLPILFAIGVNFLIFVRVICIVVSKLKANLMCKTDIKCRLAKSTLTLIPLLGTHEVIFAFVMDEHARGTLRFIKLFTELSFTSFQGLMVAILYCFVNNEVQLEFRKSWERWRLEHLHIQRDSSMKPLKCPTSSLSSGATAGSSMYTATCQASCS
Description: A. GLP-1 Assay with GLP1 Endogenous Agonist
(§1) To assess the effects of test compounds on GLP-1 or glucagon potency and efficacy, a high-throughput calcium mobilization assay was used essentially as previously described (Morris L C, Days E L, Turney M, Mi D, Lindsley C W, Weaver C D, Niswender K D, A Duplexed High-Throughput Screen to Identify Allosteric Modulators of the Glucagon-Like Peptide 1 and Glucagon Receptors. J. Biomol. Screen. 2014 Feb. 13, 19(6):847-858). Briefly, human GLP-1R or Glucagon Receptor 9-3-H cells over-expressing a promiscuous G-protein (Millipore, Billerica, Mass.) were plated at 15,000 cells/well in black-walled 384-well plates (Greiner Bio-one, Monroe, N.C.) in Dulbecco's Modified Eagles Medium (DMEM) with 10% FCS, 4.0 mM L-glutamine, non-essential amino acids (NEAAs), and 10.0 mM HEPES without antibiotics. After overnight attachment, cells were washed twice with assay buffer (HBSS supplemented with 20 mM HEPES and 1.0 mM probenecid) using an ELx405CW cell washer (Bio-Tek, Winooski, Vt.) and then loaded with the calcium sensitive dye fluo-4 AM (Invitrogen, Grand Island, N.Y.) at a final concentration of 2.0 μM in assay buffer. After a 45-minute incubation at room temperature, the dye was removed by washing, leaving 20 μL of assay buffer. Next, the cell plate was introduced alongside a 384-well compound plate containing 0.1% final DMSO control wells and 11-point concentration response curves of putative GLP-1 PAMs created using a non-pipet based liquid transfer instrument, ECH0555 (Labcyte, Sunnyvale, Calif.). After a 20 μL compound addition to the appropriate wells, kinetic fluorescent measurements were collected for 2 minutes using an FDSS6000 (Hamamatsu, Bridgewater, N.J.) with 488 nm excitation and 480/540 emission filters. After 2 minutes, 10 μL of an EC20 concentration of GLP-1 peptide 7-36 amide (Phoenix Pharmaceuticals, Burlingame, Calif.), Glucagon (Phoenix Pharmaceuticals, Burlingame, Calif.) Exendin-4 (Tocris Bioscience, Bristol, UK), or Liraglutide (Victoza™, Novo-Nordisk, Denmark) was added and fluorescence was monitored for an additional 2 minutes to observe potentiation of the calcium flux signal. […] Recombinant peptides were reconstituted into assay buffer supplemented with 0.1% fatty acid free BSA (Sigma #A6003) and diluted into borosilicate glass tubes to maximize peptide recovery (Goebel-Stengel M, Stengel A, Tache Y, Reeve J R Jr., The importance of using the optimal plasticware and glassware in studies involving peptides. Anal. Biochem. 2011 Jul. 1, 414(1):38-46).
(§2) Data is from a single experiment unless otherwise noted. Data that is an average of two experiments is noted as “n=2” while data that is an average of three or more experiments is presented as the average plus or minus the standard error of the mean.

human GLP-1R [2] = target: T1, human GLP-1R; experiment: GLP-1 assay with EX-4 synthetic agonist (calcium mobilization, EC20 EX-4); assay type: cell-based; conditions: calcium flux; for Emax at 30 µM: 30 μM compound, EC20 of EX-4; for EC50: potentiation of EC20 EX-4, read-out: GLP1 EC50 (Ex-4 synthetic agonist)
Description: B. GLP-1 Assay with EX-4 Synthetic Agonist
as §1, with “L-glutamine, 1×” for “L-glutamine,”, “EL×405CW” for “ELx405CW”, “EX-4” for “GLP-1 peptide 7-36 amide”, “Taché” for “Tache”
as §2

SMILES	Emax at 30 µM (human GLP-1R [1]) [%]	EC50 (human GLP-1R [1]) [µM]	Emax at 30 µM (human GLP-1R [2]) [%]	EC50 (human GLP-1R [2]) [µM]
Cc1c2n(c3ccccc13)C(C(=O)NC[C@@H]1CCCN1C(C)C)CN(C1CCCC1)C2=O (stereo partly drawn) [Compound 3, 2-cyclopentyl-N-(((S)-1-isopropylpyrrolidin-2-yl)methyl)-10-methyl-1-oxo-1,2,3,4-tetrahydropyrazino[1,2-a]indole-4-carboxamide]	50	5.7	55	11
Cc1c2ccccc2n2c(C(=O)NC[C@@H]3CCCN3C(C)C)cn([C@H]3CCOC3)c(=O)c12 [Compound 4, N-(((S)-1-isopropylpyrrolidin-2-yl)methyl)-10-methyl-1-oxo-2-((S)-tetrahydrofuran-3-yl)-1,2-dihydropyrazino[1,2-a]indole-4-carboxamide]	52	2.4	50	2.9
Cc1c2cc(F)ccc2n2c(C(=O)NC[C@@H]3CCCN3C(C)C)cn(C3CCCC3)c(=O)c12 [Compound 6, (S)-2-cyclopentyl-8-fluoro-N-((1-isopropylpyrrolidin-2-yl)methyl)-10-methyl-1-oxo-1,2-dihydropyrazino[1,2-a]indole-4-carboxamide]	60	4.4	54	6.1
Cc1c2cc(F)ccc2n2c(C(=O)NC[C@H]3CCCN3C(C)C)cn(C3CCCC3)c(=O)c12 [Compound 7, (R)-2-cyclopentyl-8-fluoro-N-((1-isopropylpyrrolidin-2-yl)methyl)-10-methyl-1-oxo-1,2-dihydropyrazino[1,2-a]indole-4-carboxamide]	–	> 30	–	> 30
Cc1c2n(c3ccccc13)[C@@H](C(=O)NC[C@@H]1CCCN1C(C)C)CN(C1CCCC1)C2=O [Compound 8, (R)-2-cyclopentyl-N-(((S)-1-isopropylpyrrolidin-2-yl)methyl)-10-methyl-1-oxo-1,2,3,4-tetrahydropyrazino[1,2-a]indole-4-carboxamide]	56	3.6	56	3.6
CC(C)N1CCC[C@H]1CNC(=O)c1cn(C2CCCC2)c(=O)c2c(C#N)c3ccccc3n12 [Compound 16, (S)-10-cyano-2-cyclopentyl-N-((1-isopropylpyrrolidin-2-yl)methyl)-1-oxo-1,2-dihydropyrazino[1,2-a]indole-4-carboxamide]	43	1.9	–	–
C=Cc1c2ccccc2n2c(C(=O)NC[C@@H]3CCCN3C(C)C)cn(C3CCCC3)c(=O)c12 [Compound 17, (S)-2-cyclopentyl-N-((1-isopropylpyrrolidin-2-yl)methyl)-1-oxo-10-vinyl-1,2-dihydro-pyrazino[1,2-a]indole-4-carboxamide]	37	9.6	–	–
Cc1c2ccccc2n2c(C(=O)NCC3CCN3)cn(C3CCCC3)c(=O)c12 (stereo not shown) [Compound 22, N-(azetidin-2-ylmethyl)-2-cyclopentyl-10-methyl-1-oxo-1,2-dihydropyrazino[1,2-a]indole-4-carboxamide]	–	> 30	–	–
Cc1c2ccccc2n2c(CO)cn(C3CCCC3)c(=O)c12 [Compound 23, 2-cyclopentyl-4-(hydroxymethyl)-10-methylpyrazino[1,2-a]indol-1(2H)-one]	–	> 30	–	–
Cc1c2ccccc2n2c(C(=O)NCC3CCN3C(C)C)cn(C3CCCC3)c(=O)c12 (stereo not shown) [Compound 24, 2-cyclopentyl-N-((1-isopropylazetidin-2-yl)methyl)-10-methyl-1-oxo-1,2-dihydropyrazino[1,2-a]indole-4-carboxamide]	51	12	–	–
Cc1c2ccccc2n2c(C(=O)O)cn(C3CCCC3)c(=O)c12 [Compound I, 2-Cyclopentyl-10-methyl-1-oxo-1,2-dihydropyrazino[1,2-a]indole-4-carboxylic acid]	–	> 30	–	–

Second part, the molecule after the results:

Emax at 30 µM (human GLP-1R [1]) [%]	EC50 (human GLP-1R [1]) [µM]	Emax at 30 µM (human GLP-1R [2]) [%]	EC50 (human GLP-1R [2]) [µM]	SMILES
56	4.2	55	5.9	Cc1c2ccccc2n2c(C(=O)NC[C@H]3CCCN3C(C)C)cn([C@H]3CCOC3)c(=O)c12 [Compound 5, N-(((R)-1-isopropylpyrrolidin-2-yl)methyl)-10-methyl-1-oxo-2-((S)-tetrahydrofuran-3-yl)-1,2-dihydropyrazino[1,2-a]indole-4-carboxamide]
45	13	–	–	Cc1c2ccccc2n2c(C(=O)NC[C@@H]3CCCN3C(C)C)cn(-c3ccccc3)c(=O)c12 [Compound 14, (S)-N-((1-isopropylpyrrolidin-2-yl)methyl)-10-methyl-1-oxo-2-phenyl-1,2-dihydropyrazino[1,2-a]indole-4-carboxamide]
–	> 30	–	–	Cc1c2ccccc2n2c(C(=O)NC[C@H]3CCCN3C(C)C)cn(-c3ccccc3)c(=O)c12 [Compound 15, (R)-N-((1-isopropylpyrrolidin-2-yl)methyl)-10-methyl-1-oxo-2-phenyl-1,2-dihydropyrazino[1,2-a]indole-4-carboxamide]
34	6.7	–	–	Cc1c2ccccc2n2c(C(=O)NC[C@@H]3CCCN3C(C)C)cn(-c3cnn(C)c3)c(=O)c12 [Compound 18, (S)-N-((1-isopropylpyrrolidin-2-yl)methyl)-10-methyl-2-(1-methyl-1H-pyrazol-4-yl)-1-oxo-1,2-dihydropyrazino[1,2-a]indole-4-carboxamide]
–	> 30	–	–	Cc1c2ccccc2n2c(C(=O)NC[C@H]3CCCN3C(C)C)cn(-c3cnn(C)c3)c(=O)c12 [Compound 19, (R)-N-((1-isopropylpyrrolidin-2-yl)methyl)-10-methyl-2-(1-methyl-1H-pyrazol-4-yl)-1-oxo-1,2-dihydropyrazino[1,2-a]indole-4-carboxamide]
36	5.2	–	–	Cc1c2ccccc2n2c(C(=O)NC[C@@H]3CCCN3C(C)C)cn(-c3cccnc3)c(=O)c12 [Compound 20, (S)-N-((1-isopropylpyrrolidin-2-yl)methyl)-10-methyl-1-oxo-2-(pyridin-3-yl)-1,2-dihydropyrazino[1,2-a]indole-4-carboxamide]
–	> 30	–	–	Cc1c2ccccc2n2c(C(=O)NC[C@H]3CCCN3C(C)C)cn(-c3cccnc3)c(=O)c12 [Compound 21, (R)-N-((1-isopropylpyrrolidin-2-yl)methyl)-10-methyl-1-oxo-2-(pyridin-3-yl)-1,2-dihydropyrazino[1,2-a]indole-4-carboxamide]
